Laboratory results: patent US7638509B2, “Diene compounds and formulations” (priority 2003, dated 2009)

Tests used:
[1] = molecular target: T1, progesterone receptor (PR) (Homo sapiens, UniProt P06401); assay: Steroid hormone specificity, PR/MMTV-Luc in PC-3 cells; assay type: cell-based; details: PC-3, PR/MMTV-Luc, ADEK at 0.01 mM, 0.1 mM and 1.0 mM, 24 h
T1 construct: expressed in transfected cells; host or cells: PC-3
T1 sequence (P06401 1-933): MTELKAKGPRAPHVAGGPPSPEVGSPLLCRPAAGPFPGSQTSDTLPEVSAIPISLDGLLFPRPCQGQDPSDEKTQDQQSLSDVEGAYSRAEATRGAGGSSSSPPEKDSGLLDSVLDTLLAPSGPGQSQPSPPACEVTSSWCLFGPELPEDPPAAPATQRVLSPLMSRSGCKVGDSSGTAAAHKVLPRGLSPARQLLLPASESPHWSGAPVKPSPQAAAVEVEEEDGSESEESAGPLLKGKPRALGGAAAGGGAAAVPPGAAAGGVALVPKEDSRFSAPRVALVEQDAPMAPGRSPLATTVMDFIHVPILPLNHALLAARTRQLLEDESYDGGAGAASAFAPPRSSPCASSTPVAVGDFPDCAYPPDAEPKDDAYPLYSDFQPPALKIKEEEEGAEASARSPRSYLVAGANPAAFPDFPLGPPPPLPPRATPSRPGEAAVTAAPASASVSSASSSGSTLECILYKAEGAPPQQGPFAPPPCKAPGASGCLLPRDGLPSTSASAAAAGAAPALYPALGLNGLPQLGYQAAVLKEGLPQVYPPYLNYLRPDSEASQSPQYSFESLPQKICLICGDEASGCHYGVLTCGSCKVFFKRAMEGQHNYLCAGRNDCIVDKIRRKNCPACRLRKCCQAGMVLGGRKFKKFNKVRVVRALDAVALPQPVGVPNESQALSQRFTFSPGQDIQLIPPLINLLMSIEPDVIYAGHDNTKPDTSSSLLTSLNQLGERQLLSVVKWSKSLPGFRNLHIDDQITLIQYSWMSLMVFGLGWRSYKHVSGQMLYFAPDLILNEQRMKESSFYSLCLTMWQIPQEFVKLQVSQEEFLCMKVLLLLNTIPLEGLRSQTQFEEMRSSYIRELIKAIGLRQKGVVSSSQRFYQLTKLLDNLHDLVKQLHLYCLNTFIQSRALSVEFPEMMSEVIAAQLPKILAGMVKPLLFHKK
Experimental: (§1) Cell Culture, Transfection, and Reporter Gene Assay. The human prostate cancer cell lines, LNCaP, PC-3, and DU145, and non-prostate cancer cell line COS-1 were maintained in RPMI or Dulbecco's modified Eagle's medium (DMEM) (Life Technologies) supplemented with 10% fetal bovine serum (FBS). Transfections and luciferase (Luc) assays were performed as previously described (Miyamoto, H., Yeh, S., Wilding, G. & Chang, C. (1998) Proc. Natl. Acad. Sci. USA 95, 7379-7384; Miyamoto, H., Rahman, M., Takatera, H., Kang, H.-Y., Yeh, S., Chang, H.-C., Nishimura, K., Fujimoto, N. & Chang, C. (2002) J. Biol. Chem. 277, 4609-4617). Briefly, cells seeded to reach a density of 50-60% confluence in 12 well tissue culture plates were transfected with 1.5 μg of DNA according to “SuperFect transfection” instructions (Qiagen). […] The Luc activity was determined using a Dual-Luciferase Reporter Assay System (Promega) and luminometer.
(§2) Steroid Hormone Specificity of ADEK. To characterize the steroid hormone activity of ADEK, PC-3 cells were transfected with steroid receptor/reporter (progesterone receptor (PR)/MMTV-Luc, glucocorticoid receptor (GR)/MMTV-Luc, or estrogen receptor (ER)/ERE-Luc) and analyzed for expression of the Luc reporter gene. […] The Luc activity was measured relative to that of ETOH treatment (set as 1-fold). […]

[2] = molecular target: T2, glucocorticoid receptor (GR) (Homo sapiens, UniProt P04150); assay: Steroid hormone specificity, GR/MMTV-Luc in PC-3 cells; assay type: cell-based; details: PC-3, GR/MMTV-Luc, ADEK at 0.01 mM, 0.1 mM and 1.0 mM, 24 h
T2 construct: expressed in transfected cells; host or cells: PC-3
T2 sequence (P04150 1-777): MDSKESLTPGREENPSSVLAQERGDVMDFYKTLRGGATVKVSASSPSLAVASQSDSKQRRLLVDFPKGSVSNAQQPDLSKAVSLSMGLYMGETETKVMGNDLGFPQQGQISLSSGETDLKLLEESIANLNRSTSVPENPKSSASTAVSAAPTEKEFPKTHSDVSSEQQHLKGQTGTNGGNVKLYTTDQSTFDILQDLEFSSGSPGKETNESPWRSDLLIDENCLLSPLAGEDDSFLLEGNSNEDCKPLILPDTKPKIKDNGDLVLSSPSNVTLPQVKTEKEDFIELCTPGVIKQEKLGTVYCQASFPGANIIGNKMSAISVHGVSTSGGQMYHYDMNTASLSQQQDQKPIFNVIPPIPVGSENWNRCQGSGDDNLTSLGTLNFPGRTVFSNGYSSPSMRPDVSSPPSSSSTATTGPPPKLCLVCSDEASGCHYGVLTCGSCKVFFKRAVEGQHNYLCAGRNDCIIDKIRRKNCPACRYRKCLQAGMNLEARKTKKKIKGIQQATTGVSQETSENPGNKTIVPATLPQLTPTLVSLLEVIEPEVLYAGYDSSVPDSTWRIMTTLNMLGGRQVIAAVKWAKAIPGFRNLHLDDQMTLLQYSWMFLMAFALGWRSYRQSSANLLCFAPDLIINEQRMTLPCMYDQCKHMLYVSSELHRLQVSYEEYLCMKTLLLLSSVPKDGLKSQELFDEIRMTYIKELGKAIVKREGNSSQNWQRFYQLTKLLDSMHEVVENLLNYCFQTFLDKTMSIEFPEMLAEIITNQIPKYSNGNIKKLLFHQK
Experimental: as §1, §2

[3] = test system: estrogen receptor (ER); assay: Steroid hormone specificity, ER/ERE-Luc in PC-3 cells; assay type: cell-based, human; details: PC-3, ER/ERE-Luc, ADEK at 0.01 mM, 0.1 mM and 1.0 mM, 24 h
Experimental: as §1, §2

With `CC(=O)O[C@H]1C=C[C@@]2(C)C(=CC[C@@H]3[C@@H]2CC[C@@]2(C)[C@H]3CCC23OCCO3)C1` [ADEK, 3β-acetoxy-17,17-ethylenedioxyandrosta-1,5-diene] the “progesterone activity (in words)” value [1] was “no significant”, the “glucocorticoid activity (in words)” value [2] was “no significant” and the “estrogenic activity (in words)” value [3] was “some estrogenic activity”.
